Results taken from paper PMC2690642 (Journal of neurochemistry, 2008).

How the values were obtained:
[1] = molecular target: T1, NR2B-R (regulatory domain of NMDA receptor NR2B subunit) (Rattus norvegicus, UniProt Q00960); assay: [14C]spermine filter binding to purified NR2B-R; conditions: for [14C]Spermine bound to NR2B-R in presence of addition, %: 40 µM [14C]spermine, % of binding with no addition; for Effect of aminoglycoside on spermine binding to NR2B-R: 20 µM [14C]spermine, aminoglycosides 75 to 300 µM (Fig. 10)
T1 sequence (Q00960 27-390): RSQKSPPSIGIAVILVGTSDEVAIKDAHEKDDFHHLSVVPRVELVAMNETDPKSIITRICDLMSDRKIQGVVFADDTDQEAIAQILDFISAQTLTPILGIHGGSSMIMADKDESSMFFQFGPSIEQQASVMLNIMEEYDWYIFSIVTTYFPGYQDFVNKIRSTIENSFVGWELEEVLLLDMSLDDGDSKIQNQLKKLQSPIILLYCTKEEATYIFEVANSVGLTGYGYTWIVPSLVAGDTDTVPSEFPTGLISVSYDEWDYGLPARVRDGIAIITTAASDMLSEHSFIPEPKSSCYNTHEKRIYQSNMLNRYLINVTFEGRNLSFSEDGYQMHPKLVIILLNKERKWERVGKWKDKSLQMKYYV

[2] = molecular target: T1, NR2B-R (regulatory domain of NMDA receptor NR2B subunit); assay: [3H]ifenprodil filter binding to purified NR2B-R; conditions: for [3H]Ifenprodil bound to NR2B-R in presence of addition, %: 0.4 µM [3H]ifenprodil, % of binding with no addition
NR2A-R = NR2A-R (Rattus norvegicus, UniProt Q00959); assay: Circular dichroism; type: binding
Sequence of NR2A-R (Q00959 23-389): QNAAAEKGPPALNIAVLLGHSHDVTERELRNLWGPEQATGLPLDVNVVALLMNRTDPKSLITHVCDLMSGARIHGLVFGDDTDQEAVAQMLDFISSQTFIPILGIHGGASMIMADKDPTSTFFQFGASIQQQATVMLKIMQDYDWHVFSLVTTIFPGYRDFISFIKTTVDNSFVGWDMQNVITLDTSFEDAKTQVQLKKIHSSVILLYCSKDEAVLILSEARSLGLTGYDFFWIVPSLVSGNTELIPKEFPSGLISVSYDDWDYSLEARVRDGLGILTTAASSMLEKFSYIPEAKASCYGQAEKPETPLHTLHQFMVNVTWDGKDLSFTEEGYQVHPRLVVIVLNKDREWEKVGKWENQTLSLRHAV

NR1/NR2B receptors [3] = conditions: read-out: IC50 for ifenprodil inhibition at intact, functional NR1/NR2B receptors; pH 7.6; ref Williams 1993; cited from earlier work
[4] = molecular target: T2, NR2A-R (regulatory domain of NMDA receptor NR2A subunit) (Rattus norvegicus, UniProt Q00959); assay: [3H]ifenprodil filter binding to purified NR2A-R; conditions: 0.1 to 0.8 µM [3H]ifenprodil
T2 sequence (Q00959 23-389): as above

[5] = molecular target: T3, NR1-R (regulatory domain of NMDA receptor NR1 subunit) (Rattus norvegicus, UniProt P35439); assay: [3H]ifenprodil filter binding to purified NR1-R
[6] = molecular target: T3, NR1-R (regulatory domain of NMDA receptor NR1 subunit); assay: [14C]spermine filter binding to purified NR1-R; conditions: for Effect of aminoglycoside on spermine binding to NR1-R: 20 µM [14C]spermine, aminoglycosides 75 to 300 µM (Fig. 10)
[7] = molecular target: T2, NR2A-R (regulatory domain of NMDA receptor NR2A subunit); assay: [14C]spermine filter binding to purified NR2A-R; conditions: for Effect of aminoglycoside on spermine binding to NR2A-R: 20 µM [14C]spermine, aminoglycosides 75 to 300 µM (Fig. 10)
NR1-R (E181Q) [8] = molecular target: T4, NR1-R (E181Q) (Rattus norvegicus, UniProt P35439, E181Q)
NR1/NR2A receptors = NR1/NR2A receptors (Rattus norvegicus, UniProt P35439+Q00959); assay: Voltage clamp recording in Xenopus oocytes expressing NR1/NR2A
Sequence of NR1/NR2A receptors (Q00959 23-1464, other chains not shown): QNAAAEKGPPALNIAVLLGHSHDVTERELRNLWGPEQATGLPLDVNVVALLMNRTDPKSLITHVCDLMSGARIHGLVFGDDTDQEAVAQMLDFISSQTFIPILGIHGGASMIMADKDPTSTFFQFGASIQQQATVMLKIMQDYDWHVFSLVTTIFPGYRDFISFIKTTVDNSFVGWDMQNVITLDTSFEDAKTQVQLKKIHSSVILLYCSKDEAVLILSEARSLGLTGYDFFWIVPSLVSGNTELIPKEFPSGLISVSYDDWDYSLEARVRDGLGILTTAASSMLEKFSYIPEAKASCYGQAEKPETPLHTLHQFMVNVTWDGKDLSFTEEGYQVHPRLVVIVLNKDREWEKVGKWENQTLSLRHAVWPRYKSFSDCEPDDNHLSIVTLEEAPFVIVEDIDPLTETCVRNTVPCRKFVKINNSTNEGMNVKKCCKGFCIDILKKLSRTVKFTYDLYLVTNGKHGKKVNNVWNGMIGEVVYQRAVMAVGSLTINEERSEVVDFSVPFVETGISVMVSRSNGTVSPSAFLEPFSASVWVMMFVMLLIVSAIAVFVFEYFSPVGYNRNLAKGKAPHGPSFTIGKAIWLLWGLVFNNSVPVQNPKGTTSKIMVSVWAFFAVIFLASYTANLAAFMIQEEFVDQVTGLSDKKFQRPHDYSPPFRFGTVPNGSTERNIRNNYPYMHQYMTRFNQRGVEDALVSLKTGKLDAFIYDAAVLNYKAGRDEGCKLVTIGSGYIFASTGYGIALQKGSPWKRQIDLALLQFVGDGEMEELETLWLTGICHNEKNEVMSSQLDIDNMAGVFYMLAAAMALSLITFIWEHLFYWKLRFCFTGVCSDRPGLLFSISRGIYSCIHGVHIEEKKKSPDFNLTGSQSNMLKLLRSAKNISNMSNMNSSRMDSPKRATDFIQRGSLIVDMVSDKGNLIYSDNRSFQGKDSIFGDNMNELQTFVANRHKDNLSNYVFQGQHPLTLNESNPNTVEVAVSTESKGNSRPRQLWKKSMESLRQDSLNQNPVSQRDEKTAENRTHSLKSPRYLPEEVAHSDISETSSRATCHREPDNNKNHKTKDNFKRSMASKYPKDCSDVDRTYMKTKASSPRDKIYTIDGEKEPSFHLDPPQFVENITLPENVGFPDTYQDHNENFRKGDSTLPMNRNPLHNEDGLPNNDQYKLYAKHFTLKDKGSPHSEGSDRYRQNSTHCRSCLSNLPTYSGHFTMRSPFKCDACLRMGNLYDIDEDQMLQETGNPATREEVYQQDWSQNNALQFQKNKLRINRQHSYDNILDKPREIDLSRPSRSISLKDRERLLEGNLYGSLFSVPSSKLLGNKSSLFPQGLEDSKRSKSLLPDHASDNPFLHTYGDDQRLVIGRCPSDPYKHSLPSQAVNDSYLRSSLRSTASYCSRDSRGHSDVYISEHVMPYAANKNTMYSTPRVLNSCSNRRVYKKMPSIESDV

NR1/NR2B receptors [9] = molecular target: NR1/NR2B receptors (Rattus norvegicus, UniProt P35439+Q00960); assay: Voltage clamp recording in Xenopus oocytes expressing NR1/NR2B
Sequence of NR1/NR2B receptors (Rattus norvegicus, UniProt P35439+Q00960) (Q00960 27-1482, other chains not shown): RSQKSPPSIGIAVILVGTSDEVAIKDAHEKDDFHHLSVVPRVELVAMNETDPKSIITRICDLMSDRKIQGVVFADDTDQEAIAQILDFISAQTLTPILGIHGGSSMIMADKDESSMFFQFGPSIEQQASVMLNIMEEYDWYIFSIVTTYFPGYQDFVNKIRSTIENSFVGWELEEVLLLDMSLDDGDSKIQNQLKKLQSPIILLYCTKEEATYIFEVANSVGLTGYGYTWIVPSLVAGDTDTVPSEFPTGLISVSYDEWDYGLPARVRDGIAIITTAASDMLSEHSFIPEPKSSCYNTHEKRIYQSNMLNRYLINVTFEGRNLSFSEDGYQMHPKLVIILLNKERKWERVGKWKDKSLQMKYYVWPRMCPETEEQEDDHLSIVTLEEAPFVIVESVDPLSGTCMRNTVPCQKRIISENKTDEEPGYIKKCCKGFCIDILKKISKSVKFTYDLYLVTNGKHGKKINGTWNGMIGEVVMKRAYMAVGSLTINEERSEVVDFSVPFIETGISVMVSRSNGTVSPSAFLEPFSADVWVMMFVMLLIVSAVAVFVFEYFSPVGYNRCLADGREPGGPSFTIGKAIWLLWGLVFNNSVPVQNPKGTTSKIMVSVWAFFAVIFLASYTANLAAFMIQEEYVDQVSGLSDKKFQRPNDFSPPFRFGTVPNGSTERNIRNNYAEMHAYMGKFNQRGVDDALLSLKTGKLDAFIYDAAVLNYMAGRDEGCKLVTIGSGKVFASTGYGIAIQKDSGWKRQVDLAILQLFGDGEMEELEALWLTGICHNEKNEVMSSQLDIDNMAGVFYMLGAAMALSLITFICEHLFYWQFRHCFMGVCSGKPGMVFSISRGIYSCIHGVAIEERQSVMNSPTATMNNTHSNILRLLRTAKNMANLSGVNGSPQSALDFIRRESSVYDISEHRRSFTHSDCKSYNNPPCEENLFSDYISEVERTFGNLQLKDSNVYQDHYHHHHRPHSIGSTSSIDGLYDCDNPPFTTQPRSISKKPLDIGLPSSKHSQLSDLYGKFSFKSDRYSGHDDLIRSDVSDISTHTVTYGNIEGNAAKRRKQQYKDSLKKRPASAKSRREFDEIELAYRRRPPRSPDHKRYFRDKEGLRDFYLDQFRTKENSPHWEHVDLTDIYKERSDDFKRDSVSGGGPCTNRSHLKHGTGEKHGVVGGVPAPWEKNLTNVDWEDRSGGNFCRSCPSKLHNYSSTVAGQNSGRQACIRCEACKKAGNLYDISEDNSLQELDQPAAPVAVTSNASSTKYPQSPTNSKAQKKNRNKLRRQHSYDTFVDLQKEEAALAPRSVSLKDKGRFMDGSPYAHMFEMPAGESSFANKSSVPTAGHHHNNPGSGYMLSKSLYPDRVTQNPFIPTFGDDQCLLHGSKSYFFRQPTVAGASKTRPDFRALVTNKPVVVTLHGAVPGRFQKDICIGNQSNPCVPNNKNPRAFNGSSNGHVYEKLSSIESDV

NR1-R (E181Q) [10] = molecular target: T4, NR1-R (E181Q); assay: biochemical
NR1-R = NR1-R (Rattus norvegicus, UniProt P35439); assay: Circular dichroism; type: binding
NR2B-R = NR2B-R (Rattus norvegicus, UniProt P35439+Q00960); assay: Circular dichroism; type: binding
Sequence of NR2B-R (Q00960 27-390, one chain of several): as the sequence (Q00960 27-390) above

ovalbumin = ovalbumin (Gallus gallus, UniProt P01012); conditions: control, unrelated protein
Sequence of ovalbumin (P01012 whole entry, species assumed): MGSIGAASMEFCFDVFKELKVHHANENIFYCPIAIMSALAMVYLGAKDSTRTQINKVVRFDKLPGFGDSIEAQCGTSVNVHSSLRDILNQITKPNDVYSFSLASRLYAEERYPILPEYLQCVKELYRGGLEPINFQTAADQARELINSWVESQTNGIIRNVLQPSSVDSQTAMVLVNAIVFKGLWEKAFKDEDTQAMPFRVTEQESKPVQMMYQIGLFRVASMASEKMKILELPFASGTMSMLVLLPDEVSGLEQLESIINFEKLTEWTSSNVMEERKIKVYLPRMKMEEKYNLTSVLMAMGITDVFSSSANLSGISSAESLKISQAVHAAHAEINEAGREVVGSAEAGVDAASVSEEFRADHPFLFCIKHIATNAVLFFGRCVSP

For `N[C@@H](CCC(=O)O)C(=O)O` [Glutamate, glutamate], the “[14C]Spermine bound to NR2B-R in presence of addition, %” value (“[14C]Spermine bound to NR2B-R … %” for short) [1] was 102% and the “[3H]Ifenprodil bound to NR2B-R in presence of addition, %” value (“[3H]Ifenprodil bound to NR2B-R … %” below) [2] was 103%.
In the case of `NCC(=O)O` [Glycine, glycine], the “[3H]Ifenprodil bound to NR2B-R … %” value [2] is reported as 102%.
For `NCCCCNCCCN` [Spermidine, spermidine], the “[14C]Spermine bound to NR2B-R … %” value [1] was 6% and the “[3H]Ifenprodil bound to NR2B-R … %” value [2] was 98%.
In the case of `CC(C(O)c1ccc(O)cc1)N1CCC(Cc2ccccc2)CC1` (stereo not shown) [ifenprodil], the “Change in the CD spectra of NR2A-R” value (NR2A-R; 2 µM ifenprodil) is listed as “no change”, the IC50 (NR1/NR2B receptors [3]) is listed as 0.34 µM and the “Specific binding of [3H]ifenprodil to NR2A-R” value [4] is listed as “no specific binding”. The “[14C]Spermine bound to NR2B-R … %” value [1] was 108%, the “Bmax of ifenprodil binding, NR2B-R” value [2] was 5.2 nmol/mg R domain protein and the “Bmax of ifenprodil binding, NR2B-R, equivalent” value [2] was 0.21 mol/mol R domain protein. The “Hill coefficient for binding of ifenprodil to NR2B-R” value [2] was roughly 1.0, the “[3H]Ifenprodil bound to NR2B-R … %” value [2] was 15% and the “Bmax of ifenprodil binding, NR1-R” value [5] was 5.6 nmol/mg R domain protein. The “Bmax of ifenprodil binding, NR1-R, equivalent” value [5] was 0.24 mol/mol R domain protein and the “Hill coefficient for binding of ifenprodil to NR1-R” value [5] was roughly 1.0.
With `NC[C@@H]1O[C@H](O[C@H]2[C@@H](O)[C@H](O[C@@H]3[C@@H](O)[C@H](N)C[C@H](N)[C@H]3O[C@H]3O[C@H](CN)[C@@H](O)[C@H](O)[C@H]3N)O[C@@H]2CO)[C@H](N)[C@@H](O)[C@@H]1O` [neomycin B] the “Effect of aminoglycoside on spermine binding to NR1-R” value (“Effect of aminoglycoside … to NR1-R” below) [6] was “inhibited”, the “Effect of aminoglycoside on spermine binding to NR2B-R” value (“Effect of aminoglycoside … to NR2B-R” below) [1] was “inhibited” and the “Effect of aminoglycoside on spermine binding to NR2A-R” value (“Effect of aminoglycoside … to NR2A-R” for short) [7] was “inhibited”.
With `NC[C@@H]1O[C@H](O[C@H]2[C@@H](O)[C@H](O[C@@H]3[C@@H](O)[C@H](N)C[C@H](N)[C@H]3O[C@H]3O[C@H](CO)[C@@H](O)[C@H](O)[C@H]3N)O[C@@H]2CO)[C@H](N)[C@@H](O)[C@@H]1O` [paromomycin] the “Effect of aminoglycoside … to NR1-R” value [6] was “inhibited”, the “Effect of aminoglycoside … to NR2B-R” value [1] was “inhibited” and the “Effect of aminoglycoside … to NR2A-R” value [7] was “inhibited”.
For `NCCCNCCCCNCCCN` [spermine], the Kd (NR2A-R) was 133 µM, the “Binding of spermine to E181Q mutant compared to wild-type NR1-R” value (NR1-R (E181Q) [8]) was “reduced” and the “Bmax of spermine binding, NR1-R, equivalent” value [6] was 0.24 mol/mol R domain. The “Hill coefficient for spermine binding to NR1-R” value [6] was “close to unity”, the Kd [6] was 19 µM and the “Bmax of spermine binding, NR1-R” value ([6]; Scatchard plot) was 6.3 nmol/mg R domain protein. The EC50 (NR1/NR2A receptors) was 278 µM, the “Hill coefficient for spermine at NR1/NR2A” value (NR1/NR2A receptors; oocytes, −20 mV) was 1.17 and the EC50 (NR1/NR2B receptors [9]) was 78 µM. For the same compound, the “Hill coefficient for spermine at NR1/NR2B” value (NR1/NR2B receptors [9]; oocytes, −20 mV) was 1.05, the Kd (NR1-R (E181Q) [10]) was 74 µM and the “Bmax of spermine binding, NR2B-R, equivalent” value [1] was 0.32 mol/mol R domain. For the same compound, the “Hill coefficient for spermine binding to NR2B-R” value [1] was “close to unity”, the “[14C]Spermine bound to NR2B-R … %” value [1] was 7% and the Kd ([1]; Kd of spermine at NR2B-R calculated from k1 and k−1, from rate constants) was 25.9 µM. For the same compound, the “Bmax of spermine binding, NR2B-R” value ([1]; Scatchard plot) was 7.3 nmol/mg R domain protein, the “Dissociation rate constant k−1 of [14C]spermine at NR2B-R” value ([1]; after addition of nonlabeled 3 mM spermine) was 0.22 min⁻¹ and the “Association rate constant k1 of [14C]spermine at NR2B-R” value ([1]; average at 12.5, 25 and 50 µM [14C]spermine) was 8,500 M^−1·min^−1. For the same compound, the Kd (NR1-R) was 20 µM, the Kd (NR2B-R) was 35 µM and the “[3H]Ifenprodil bound to NR2B-R … %” value [2] was 99%. For the same compound, the “Binding of spermine to ovalbumin” value (ovalbumin) was “little binding”, the “Bmax of spermine binding, NR2A-R, equivalent” value [7] was 0.29 mol/mol R domain and the “Hill coefficient for spermine binding to NR2A-R” value [7] was “close to unity”. The Kd [7] was 140 µM, the “Bmax of spermine binding, NR2A-R” value ([7]; Scatchard plot) was 6.9 nmol/mg R domain protein and the “Affinity for spermine lower at NR2A R domain compared to NR2B R domain” value ([7]; ratio of Kd) was 4 fold.
With `[H]/N=C(/N)N[C@H]1[C@H](O)[C@@H](O)[C@H](O[C@@H]2O[C@@H](C)[C@](O)(C=O)[C@H]2O[C@@H]2O[C@@H](CO)[C@H](O)[C@@H](O)[C@@H]2NC)[C@@H](N/C(N)=N\[H])[C@@H]1O` [streptomycin] the “Effect of aminoglycoside … to NR1-R” value [6] was “inhibited”, the “Effect of aminoglycoside … to NR2B-R” value [1] was “inhibited” and the “Effect of aminoglycoside … to NR2A-R” value [7] was “inhibited”.
For kanamycin A, the “Effect of aminoglycoside … to NR1-R” value [6] was “inhibited”, the “Effect of aminoglycoside … to NR2B-R” value [1] was “inhibited” and the “Effect of aminoglycoside … to NR2A-R” value [7] was “inhibited”.
